Experimental data: patent US6420119B1, “Methods of diagnosing and treating urinary incontinence relating to collagen proteolysis in pelvic supporting tissue” (The Board of Trustees of the Leland Stanford Jr. University, priority 1999, dated 2002)
Counter-ions that a name gives are not always drawn.

How the values were obtained:
[1] = patients with advanced lung carcinoma; relative to levels required for MMP inhibition in vitro; cited from earlier work
procollagenase [2] = conditions: pregnant guinea pig cervix; cited from earlier work
MMP-9 = MMP-9 mRNA expression in cultured human endometrial stromal cells; format: cell-based
Description: (§1) Our laboratory has examined the ability of IL-1β and transforming growth factor-β (TGF-13) to regulate MMP-9, TIMP-1, and TIMP-3 mRNA expression in cultured human endometrial stromal cells (28). In these cultured endometrial stromal cells, TIMP-1 and TIMP-3 but not MMP-9 mRNA were expressed.

TIMP-1 = TIMP-1 mRNA expression in cultured human endometrial stromal cells; format: cell-based; conditions: vs control cells
Description: (§2) (a) GnRH Agonist: Trophoblast invasion is regulated in part by MMP-9 which can be inhibited by both TIMP-1 and TIMP-3 (25). […] Moreover, the expression of TIMP-1 appeared to be affected to a much greater extent than that of TIMP-3 (26).
as §1

TIMP-3 = TIMP-3 mRNA expression in cultured human endometrial stromal cells; format: cell-based; conditions: vs control cells
Description: as §2, §1

TIMPs = conditions: cultured rabbit uterine cervical fibroblasts; cited from earlier work
procollagenase [3] = conditions: cultured rabbit uterine cervical fibroblasts; cited from earlier work
[4] = test system: matrix metalloproteinases; conditions: human endometrium during the menstrual cycle; cited from earlier work
collagenase = conditions: human cervix, intravenous; cited from earlier work

Row | Compound | TIMP-1 mRNA expression (TIMP-1) | TIMP-3 mRNA expression (TIMP-3) | level of TIMPs in the culture media (TIMPs) | levels of procollagenase in the culture medium (procollagenase [3]) | also measured
1 | CNC(=O)[C@@H](NC(=O)[C@H](CC(C)C)[C@H](O)C(=O)NO)C(C)(C)C [Marimastat] | – | – | – | – | plasma levels [1]: substantially higher than those required for MMP inhibition in vitro
2 | IL-1β: cytokine | decrease | decrease | – | – | procollagenase production (procollagenase [2]): two-fold increase; MMP-9 expression (MMP-9): stimulation
3 | C[C@]12CC[C@@H]3c4ccc(O)cc4CC[C@H]3[C@@H]1CC[C@@H]2O [17β-estradiol] | – | – | increased | declined | procollagenase activity (procollagenase [2]): doubled
4 | CC(=O)[C@H]1CC[C@H]2[C@@H]3CCC4=CC(=O)CC[C@]4(C)[C@H]3CC[C@]12C [progesterone] | – | – | increased | declined | gene expression of matrix metalloproteinases [4]: repressed
5 | C[C@]12CC[C@H](OS(=O)(=O)O)CC1=CC[C@@H]1[C@@H]2CC[C@]2(C)C(=O)CC[C@@H]12 [DHEAS, dehydroepiandosterone sulfate] | – | – | – | – | increase in collagenase activity (collagenase): over 150%
6 | TGF-β | augmented | augmented | – | – | –
